Key:
Assay type in all cases: cell-based, human
MICB mRNA = MICB mRNA by RT-qPCR in MM cell lines; settings: all four MM cell lines except MOLP-8; 1 and 2.5 μM, 36 hours
Protocol: Real time quantitative PCR (RT-qPCR) Total RNA was isolated using the RNeasy Mini Kit (Qiagen, Hilden, Germany). Following reverse transcription, PCR was performed using TaqMan Gene Expression Assays (Applied Biosystems, Foster City, CA, USA): CD38 (Hs01120071_m1), MICA (Hs00741286_m1), MICB (Hs00792952_m1) and GAPDH (Hs99999905_m1). The results were expressed as fold change relative to expression of the target gene in control cells, using endogenous expression of GAPDH for normalization.

ULBP1 = assay: Surface expression of NK cell activating ligands by flow cytometry; settings: MM cell lines tested; not basally expressed; data not shown
Protocol: (§1) For surface staining, cells were incubated with the appropriate antibodies and 7AAD (Immunostep) for 15 min in the dark. Data were acquired using a FACSCalibur cytometer (BD Biosciences) and analyzed using Infinicyt™ software (Cytognos). Specifically, the expression of CD38 or ligands for NK cell activating receptors (MICA, MICB, ULBP1-3, PVR and CD112) in MM cell lines was determined on the viable cell population (7AAD-). In primary myeloma cells, the expression of CD38 was analyzed over the viable myeloma population using the panel CD138-FITC/CD56-PE/7AAD/CD38-APC, whereas MICA/B-AF488/CD56-PE/7AAD/CD38-APC panel was used to determine MICA/B expression. Normalized median fluorescence intensity (MFI) was calculated by dividing median fluorescence obtained with the specific antibody by median fluorescence of the corresponding isotype control. MFI for each treatment was expressed as a percentage relative to the control (100%, cells cultured in media with DMSO).
(§2) MM cells (JJN3, MM1.S, RPMI-8226, MOLP-8) were treated with EDO-S101 (1 and 2.5 μm) for 48 hours in accordance with the methods outlined above. After incubation, expression of several ligands for NK cell activating receptors: MICA, MICB, ULBP1, ULPB2, ULPB3, CD155 (PVR) and CD112 (Nectin-2) were measured using flow cytometry. Flow cytometry was then performed in accordance with the methods outlined above to calculate.

MICB [1] = assay: as above; settings: 48 hours, DMSO = 100
Protocol: as §1, §2

ULBP2 = assay: as above; settings: 48 hours, DMSO = 100
Protocol: as §1, §2

CD112 = assay: as above; settings: RPMI-8226, 48 hours, DMSO = 100
Protocol: as §1, §2

MICA = assay: as above; settings: 48 hours, DMSO = 100
Protocol: as §1, §2

ULBP3 = assay: as above; settings: RPMI-8226, 48 hours, DMSO = 100
Protocol: as §1, §2

CD155 = assay: as above; settings: 48 hours, DMSO = 100
Protocol: as §1, §2

CD38 = CD38 expression on primary myeloma cells from patients ex vivo, flow cytometry; settings: 2.5 μM, 48 hours; 3 out of 11 patients (low basal expression); not observed with high basal CD38
Protocol: as §1
CD38 expression was further examined by flow cytometry in malignant plasma cells from ex vivo cultures of 11 MM patients' bone marrow samples treated with tinostamustine (2.5 μM) for 48 hours.

MICB [2] = assay: MICB expression on MM patients' plasma cells ex vivo; settings: 3 out of 6 patients analyzed, 48 hours
Protocol: as §1

Q: For `Cn1c(CCCCCCC(=O)NO)nc2cc(N(CCCl)CCCl)ccc21` [EDO-S101, 7-(5-(bis(2-chloroethyl)amino)-1-methyl-1H-benzo[d]imidazol-2-yl)-N-hydroxyheptanamide], which “expression of MICB at the mRNA level” value (MICB mRNA) is on record?
A: The value was “increased”.

Q: What about the ULBP1 expression (ULBP1) of the same molecule?
A: Its ULBP1 expression is “did not change”.

Q: What about the “Normalized MFI MICB” value (MICB [1]; JJN3, EDO-S101 1 μM) of the same molecule?
A: Its value is 137.6 ± 14%.

Q: What about the “Normalized MFI MICB” value (MICB [1]; JJN3, EDO-S101 2.5 μM) of the same molecule?
A: Its value is 144.9 ± 28%.

Q: And the “Normalized MFI MICB” value (MICB [1]; MM1.S, EDO-S101 1 μM)?
A: The value was 113.8 ± 7.6%.

Q: And the “Normalized MFI MICB” value (MICB [1]; MM1.S, EDO-S101 2.5 μM)?
A: Its value is 113.4 ± 3.3%.

Q: And the “Normalized MFI MICB” value (MICB [1]; MOLP-8, EDO-S101 1 μM)?
A: Its value is 107.8 ± 0.5%.

Q: And the “Normalized MFI MICB” value (MICB [1]; MOLP-8, EDO-S101 2.5 μM)?
A: The value was 119.3 ± 7.7%.

Q: What about the “Normalized MFI MICB” value (MICB [1]; RPMI-8226, EDO-S101 1 μM) of the same molecule?
A: The value was 107.1 ± 6.6%.

Q: What about the “Normalized MFI MICB” value (MICB [1]; RPMI-8226, EDO-S101 2.5 μM) of the same molecule?
A: The value was 131.3 ± 9.4%.

Q: What about the “Normalized MFI ULBP2” value (ULBP2; JJN3, EDO-S101 1 μM) of the same molecule?
A: The value was 110.5 ± 9.5%.

Q: And the “Normalized MFI ULBP2” value (ULBP2; JJN3, EDO-S101 2.5 μM)?
A: Its value is 112.9 ± 13.4%.

Q: And the “Normalized MFI ULBP2” value (ULBP2; MM1.S, EDO-S101 1 μM)?
A: The value was 95.8 ± 4.5%.

Q: What about the “Normalized MFI ULBP2” value (ULBP2; MM1.S, EDO-S101 2.5 μM) of the same molecule?
A: The value was 96.3 ± 12.3%.

Q: What about the “Normalized MFI ULBP2” value (ULBP2; MOLP-8, EDO-S101 1 μM) of the same molecule?
A: Its value is 116.1 ± 4.6%.

Q: What about the “Normalized MFI ULBP2” value (ULBP2; MOLP-8, EDO-S101 2.5 μM) of the same molecule?
A: The value was 124.7 ± 13.5%.

Q: And the “Normalized MFI CD112” value (CD112; EDO-S101 1 μM)?
A: Its value is 116.6 ± 13.2%.

Q: And the “Normalized MFI CD112” value (CD112; EDO-S101 2.5 μM)?
A: The value was 142.8 ± 11.5%.

Q: And the “Normalized MFI MICA” value (MICA; JJN3, EDO-S101 1 μM)?
A: The value was 162.9 ± 11.8%.

Q: What about the “Normalized MFI MICA” value (MICA; JJN3, EDO-S101 2.5 μM) of the same molecule?
A: Its value is 168.8 ± 10.3%.

Q: What about the “Normalized MFI MICA” value (MICA; MM1.S, EDO-S101 1 μM) of the same molecule?
A: Its value is 131.9 ± 37.6%.

Q: What about the “Normalized MFI MICA” value (MICA; MM1.S, EDO-S101 2.5 μM) of the same molecule?
A: The value was 128 ± 38.2%.

Q: What about the “Normalized MFI MICA” value (MICA; MOLP-8, EDO-S101 1 μM) of the same molecule?
A: Its value is 112.9 ± 5.7%.

Q: What about the “Normalized MFI MICA” value (MICA; MOLP-8, EDO-S101 2.5 μM) of the same molecule?
A: Its value is 131.7 ± 13.4%.

Q: What about the “Normalized MFI MICA” value (MICA; RPMI-8226, EDO-S101 1 μM) of the same molecule?
A: Its value is 121.3 ± 5.9%.

Q: What about the “Normalized MFI MICA” value (MICA; RPMI-8226, EDO-S101 2.5 μM) of the same molecule?
A: Its value is 153.6 ± 16.1%.

Q: And the “Normalized MFI ULBP3” value (ULBP3; EDO-S101 1 μM)?
A: The value was 111.7 ± 14.8%.

Q: What about the “Normalized MFI ULBP3” value (ULBP3; EDO-S101 2.5 μM) of the same molecule?
A: The value was 129.6 ± 20.2%.

Q: What about the “Normalized MFI CD155” value (CD155; JJN3, EDO-S101 1 μM) of the same molecule?
A: Its value is 161.4 ± 14.3%.

Q: What about the “Normalized MFI CD155” value (CD155; JJN3, EDO-S101 2.5 μM) of the same molecule?
A: The value was 156.8 ± 24.7%.

Q: What about the “Normalized MFI CD155” value (CD155; MM1.S, EDO-S101 1 μM) of the same molecule?
A: The value was 113.3 ± 3.9%.

Q: What about the “Normalized MFI CD155” value (CD155; MM1.S, EDO-S101 2.5 μM) of the same molecule?
A: The value was 111.5 ± 15.3%.

Q: What about the “Normalized MFI CD155” value (CD155; RPMI-8226, EDO-S101 1 μM) of the same molecule?
A: The value was 123.9 ± 6.1%.

Q: What about the “Normalized MFI CD155” value (CD155; RPMI-8226, EDO-S101 2.5 μM) of the same molecule?
A: The value was 168.2 ± 24.8%.

Q: What about the “CD38 expression in primary myeloma cells” value (CD38) of the same molecule?
A: The value was “slightly increased”.

Q: And the “increase of MICB expression after treatment, patient cells” value (MICB [2])?
A: Its value is “more than 1.5 fold”.
